The results in this text go back to patent publication US5795907A, “Gastin and CCK receptor ligands” (James Black Foundation Limited, priority 1994, dated 1998).

For assay [1], the target named is T1, CCKB receptor (Mus musculus, UniProt P56481).
T1 construct: The cortex was dissected, weighed and homogenised in 40ml ice-cold buffer; tissue Charles River (supplier of the CD1 mice); host or cells: cerebral cortex membranes of male CD1 mice
T1 sequence (P56481 1-453): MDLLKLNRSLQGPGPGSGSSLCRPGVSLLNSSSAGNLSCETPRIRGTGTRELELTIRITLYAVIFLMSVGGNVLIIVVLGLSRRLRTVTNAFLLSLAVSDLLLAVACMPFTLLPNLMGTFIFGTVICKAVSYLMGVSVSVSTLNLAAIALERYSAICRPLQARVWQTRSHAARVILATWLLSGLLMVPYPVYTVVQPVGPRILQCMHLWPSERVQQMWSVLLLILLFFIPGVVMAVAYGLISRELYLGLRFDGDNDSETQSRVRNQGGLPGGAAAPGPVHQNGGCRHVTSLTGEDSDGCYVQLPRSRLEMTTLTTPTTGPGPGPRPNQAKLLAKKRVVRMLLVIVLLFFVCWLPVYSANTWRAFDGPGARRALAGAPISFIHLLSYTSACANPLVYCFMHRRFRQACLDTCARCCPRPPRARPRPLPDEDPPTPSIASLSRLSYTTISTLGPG
The assay is described as follows: CCKB receptor radioligand binding assay in mouse cortical membranes ([125I]-CCK8S). The conditions noted are these: [125I]-CCK8S 200 pM, 150 min at 21±3°; for Ki: read-out: CCKB pKi (converted). As to the method:
The compounds of the examples were tested for binding at the CCKB receptor in mouse cortical membranes by means of a radioligand binding assay. The procedure was as follows:
The whole brains from male mice (CD1 22-25 g; Charles River) were removed and placed in ice-cold buffer (pH7.2 @ 21±3°) of the following composition (mM); 10 HEPES, 130 NaCl, 4.7 KCl, 5 MgCl2, 1 EDTA and containing 0.25g.^-1 bacitracin. The cortex was dissected, weighed and homogenised in 40ml ice-cold buffer using a Teflon-in-glass homogeniser. The homogenate was centrifuged at 39,800g for 20 min at 4°, the supernatant discarded and the pellet resuspended by homogenisation in fresh buffer. The homogenate was recentrifuged (39,800 g; 20 min @ 4°) and the final pellet was resuspended in HEPES buffer to give a tissue concentration of 2 mg.ml^-1 (original wet weight).
The membranes ([…]) were incubated for 150 min at 21±3° in a final volume of 0.5 ml with HEPES buffer containing [^125 I]-CCK8S (0.05 ml; 200 pM NEN 2200 Ci.mmol^-1) and competing compound. Total and non-specific binding of [^125 I]-CCK8S were defined using 0.05 ml of buffer and 0.05 ml of […] L-365,260, respectively. The assay was terminated by rapid filtration through pre-soaked Whatman GF/B filters using a Brandell Cell harvester. The filters were washed (3×3 ml) with ice-cold 50 mM Tris-HCl (pH7.4 @ 4° C.) and bound radioactivity determined by counting (1 min.) in a gamma-counter.

Assay [2] has as its target T2, gastrin (Rattus norvegicus, UniProt P30553).
T2 construct: The stomach was lowered into a jacketed organ bath containing 40 ml of buffered solution; from tissue; host or cells: isolated perfused whole stomach of immature rats (ca. 21 days old)
T2 sequence (P30553 1-452): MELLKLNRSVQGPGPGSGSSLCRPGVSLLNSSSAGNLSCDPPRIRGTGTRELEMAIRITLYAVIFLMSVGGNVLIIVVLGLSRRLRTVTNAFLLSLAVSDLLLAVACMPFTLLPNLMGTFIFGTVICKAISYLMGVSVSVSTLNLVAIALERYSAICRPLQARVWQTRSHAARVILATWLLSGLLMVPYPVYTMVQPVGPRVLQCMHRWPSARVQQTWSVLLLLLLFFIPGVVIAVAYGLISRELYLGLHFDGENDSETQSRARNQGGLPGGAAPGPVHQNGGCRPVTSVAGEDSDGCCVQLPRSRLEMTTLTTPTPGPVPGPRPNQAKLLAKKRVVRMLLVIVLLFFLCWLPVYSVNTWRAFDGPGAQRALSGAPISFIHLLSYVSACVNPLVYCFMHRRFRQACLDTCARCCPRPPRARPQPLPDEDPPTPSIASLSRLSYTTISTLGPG
The assay is described as follows: gastrin antagonist activity in an immature rat stomach assay (pentagastrin-stimulated acid secretion). The conditions noted are these: cumulative pentagastrin dose-response curves after 60 min with drug; for Kb: read-out: Gastrin pKB (converted). As to the method:
The compounds of the examples were also tested for gastrin antagonist activity in an immature rat stomach assay. The procedure was as follows:
The oesophagus of immature rats (33-50 g, ca. 21 days old) was ligated at the level of the cardiac sphincter and the duodenal sphincter was cannulated. The stomach was excised and flushed with ca. 1 ml of unbuffered physiological saline solution. The fundus was punctured and cannulated. A further 4-5 ml of unbuffered solution was flushed through the stomach to ensure the preparation was not leaking. The stomach was lowered into a jacketed organ bath containing 40 ml of buffered solution containing 3×10^-8 M 5-methylfurmethide, maintained at 37° and gassed vigorously with 95% O2 /5% CO2. The stomach was continuously perfused at a rate of 1 ml min^-1 with unbuffered solution gassed with 100% O2 with the perfusate passing over an internally referenced pH-electrode fixed 12 cm above the stomach.
After 120 min of stabilisation the drugs were added directly to the serosal solution in the organ bath and after a further 60 min cumulative pentagastrin dose-response curves were started. Changes in acid secretion were monitored and the curves analysed according to Black et.al., Br. J. Pharmacol., 1985, 86, 581.

In assay [3] the target is T3, CCKA (Cavia porcellus, UniProt Q63931).
T3 construct: The pancreatata were homogenised in 40 ml ice-cold HEPES buffer using a polytron; from tissue; host or cells: pancreas membranes of male Dunkin Hartley guinea-pigs
T3 sequence (Q63931 1-430): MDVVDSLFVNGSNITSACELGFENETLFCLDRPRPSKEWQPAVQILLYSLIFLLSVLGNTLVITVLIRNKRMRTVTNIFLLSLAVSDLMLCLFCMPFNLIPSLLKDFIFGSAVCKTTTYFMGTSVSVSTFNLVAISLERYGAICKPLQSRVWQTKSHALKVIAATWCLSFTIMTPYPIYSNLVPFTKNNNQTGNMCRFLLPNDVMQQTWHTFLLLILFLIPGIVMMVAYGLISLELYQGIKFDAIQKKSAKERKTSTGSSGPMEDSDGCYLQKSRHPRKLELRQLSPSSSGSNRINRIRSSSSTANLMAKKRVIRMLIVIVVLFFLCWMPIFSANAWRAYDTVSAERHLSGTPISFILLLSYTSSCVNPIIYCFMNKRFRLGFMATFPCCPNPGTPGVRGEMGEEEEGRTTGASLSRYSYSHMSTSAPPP
The assay is described as follows: CCKA radioligand binding assay in guinea-pig pancreas membranes ([125I]-CCK8(S)). The conditions noted are these: PD134,308 present, 150 minutes at 21±3°, read-out: CCKA pKi (converted). The procedure:
The compounds of the examples were also tested in a CCKA as follows:
The pancreatata were removed from male guinea-pigs (200-300 g; Dunkin Hartley) and placed in ice-cold HEPES buffer (pH 7.2 @ 21 ±3). The pancreatata were homogenised in 40 ml ice-cold HEPES buffer using a polytron (Brinkmann, PT10, setting 10) 4×1 second. The homogenate was centrifuged at 39,800 g for 15 min at 4°. The supernatant was discarded and the pellet re-suspended using a Teflon-in-glass homogeniser in 20 volumes of fresh buffer and re-centrifuged as above.
The final pellet was re-suspended using a Teflon-in-glass homogeniser to a tissue concentration of 1 mg.ml^-1 (original wet weight), and filtered through 500 μm pore-size Nytex mesh.
The membranes (400 μl; containing 0.375 μM PD134,308) are incubated for 150 minutes at 21±3° in a final volume of 0.5 ml with HEPES buffer containing [^125 I]-CCK8 (S) (50 μl; […]) and competing compound. Total and non-specific binding of [^125 I]-CCK8 (S) are defined using 50 μl of buffer and 50 μl of 100 nM L-364,718 respectively. The assay is terminated by rapid filtration through pre-soaked Whatman GF/B filters using a Brandell Cell Harvester. The filters were washed (3×3 ml) with ice-cold 50 mM Tris HCl (pH 7.4 at 4°) and bound radioactivity is determined by counting (1 min) in a gamma counter.

Regarding “3-(1S-(3,5-dicarboxyphenylaminocarbonyl)-2-phenylethylaminocarbonyl)-2-(1-adamantanemethylaminocarbonyl)-1-phenylnaphthalene and its regioisomer with groups at positions 2 and 3 reversed [Example 56]”, the “CCKB pKi” value in assay [1] amounted to 7.0. For the same compound, in assay [2], the “Gastrin pKB” value was determined as 7.1. Turning to “5-(1S-(3,5-dicarboxyphenylaminocarbonyl)-5-aminopentylaminocarbonyl)-6-(1-adamantanemethylaminocarbonyl)-indole and regioisomer with substituents at positions 5 and 6 reversed [Example 65]”, in assay [1], the “CCKB pKi” value was 7.3. Further, the “Gastrin pKB” value in assay [2] came out at 8.2. In the case of “5-(1S-(3,5-methoxyaminocarbonylphenylaminocarbonyl)-2-phenylethylaminocarbonyl)-6-(1-adamantanemethylaminocarbonyl)-indole and regioisomer with substituents at positions 5 and 6 reversed [Example 38]”, in assay [1], the “CCKB pKi” value came to 7.5. Further, the “Gastrin pKB” value in assay [2] stood at 7.1. With `CN(CC12CC3CC(CC(C3)C1)C2)C(=O)c1cc2ccccc2cc1C(=O)N1CCC[C@@H]1C(=O)O` [Example 9, 2-(2R-carboxypyrrolidino-carbonyl)-3-(1-adamantanemethyl(N-methyl)aminocarbonyl)-naphthalene], the Ki in assay [1] was 251 nM. For the same compound, the Kb in assay [2] was 501 nM. For `C[C@@H](NC(=O)[C@H]1CCCN1C(=O)c1cc2ccccc2cc1C(=O)NCC12CC3CC(CC(C3)C1)C2)C(=O)O` [Example 10, 2-(2R-(1R-carboxyethylaminocarbonyl)pyrrolidinocarbonyl)-3-(1-adamantanemethylaminocarbonyl)-naphthalene], in that order: 1580 nM and 316 nM.

Turning to `O=C(O)CNC(=O)[C@H]1CCCN1C(=O)c1cc2ccccc2cc1C(=O)NCC12CC3CC(CC(C3)C1)C2` [Example 11, 2-(2R-carboxymethylaminocarbonylpyrrolidinocarbonyl)-3-(1-adamantanemethylaminocarbonyl)-naphthalene], in assay [1], the Ki is 1260 nM. Also, the Kb in assay [2] is 251 nM. Turning to `C[C@@H](NC(=O)[C@H]1CCCN1C(=O)c1cc2ccccc2cc1C(=O)N(C)CC12CC3CC(CC(C3)C1)C2)C(=O)O` [Example 12, 2-(2R-(1R-carboxyethylaminocarbonyl)pyrrolidinocarbonyl)-3-(1-adamantanemethyl(N-methyl)aminocarbonyl)-naphthalene], in assay [1], the Ki was 1260 nM. The Kb in assay [2] is 1260 nM. For the compound `C[C@H](NC(=O)[C@H]1CCCN1C(=O)c1cc2ccccc2cc1C(=O)N(C)CC12CC3CC(CC(C3)C1)C2)C(=O)O` [Example 13, 2-(2R-(1S-carboxyethylaminocarbonyl)pyrrolidinocarbonyl)-3-(1-adamantanemethyl(N-methyl)aminocarbonyl)-naphthalene], the Ki in assay [1] is 2000 nM. Moreover, the Kb in assay [2] was 398 nM. Turning to `O=C(O)c1cc(NC(=O)[C@@H](Cc2ccccc2)NC(=O)c2cc3ccccc3cc2C(=O)NCC23CC4CC(CC(C4)C2)C3)cc(C(=O)O)c1` [Example 23, 2-(1R-(3,5-dicarboxyphenylaminocarbonyl) -2-phenylethylaminocarbonyl)-3-(1-adamantanemethylaminocarbonyl)-naphthalene], the Kb in assay [2] was 39.8 nM. Regarding `O=Cc1cc(C=O)cc(NC(=O)[C@H](Cc2ccccc2)NC(=O)c2cc3[nH]cnc3cc2C(=O)NCC23CC4CC(CC(C4)C2)C3)c1` [Example 120, 5-(1S-(3,5-hydrogencarbonylphenylaminocarbonyl)-2-phenylethylaminocarbonyl)-6-(1-adamantanemethylaminocarbonyl)-benzimidazole], the Ki is 1000 nM in assay [3] and 631 nM in assay [1].

Regarding `O=C(O)c1cc(NC(=O)[C@@H]2Cc3ccccc3CN2C(=O)c2cc3[nH]cnc3cc2C(=O)NCC23CC4CC(CC(C4)C2)C3)cc(C(=O)O)c1` [Example 129, 5-(3S-(3,5-dicarboxyphenylaminocarbonyl)-1,2,3,4-tetrahydroisoquinolino-2-carbonyl)-6-(1-adamantanemethylaminocarbonyl)-benzimidazole], the Ki was 7940 nM in assay [3] and 200 nM in assay [1]. As for `O=C(O)c1cc(NC(=O)[C@H](Cc2ccccc2)NC(=O)c2cc3[nH]cnc3cc2C(=O)NCc2ccc3ccccc3c2)cc(C(=O)O)c1` [Example 130, 5-(1S-(3,5-dicarboxyphenylaminocarbonyl)-2-phenylethylaminocarbonyl)-6-(2-naphthalenenemethylaminocarbonyl)-benzimidazole], the Ki in assay [3] is 3980 nM; in assay [1], 25.1 nM.
